Assays:
Type in all cases: biochemical
[1] = target: T1, MMP-14 (Homo sapiens, UniProt P50281); assay: In vitro fluorometric inhibition assay of MMPs: MMP-14
T1 construct: purchased Calbiochem
Procedure: (§1) Analysis of the In Vitro Inhibition Activity of Zinc Metalloproteinases: In Vitro Inhibition of MMMPs
(§2) The human recombinant Progelatinase A (pro-MMP-2), B (pro-MMP-9), MMP-14cd and MMP-16cd, were provided by Prof. Gillian Murphy (Oncology Department, Cambridge University, UK); pro-MMP-1, pro-MMP-3, pro-MMP-7, pro-MMP-8, pro-MMP-13 and pro-MMP-14 were bought from Calbiochem. The proenzymes were activated immediately before the use with p-aminophenylmercuric acetate (APMA 2 mM for 1 h at 37° C. for MMP-1, MMP-2 and MMP-8, 1 mM for 1 h at 37° C. for MMP-9 and MMP-7, 1 mM for 30 min at 37° C. for MMP-13). Pro-MMP-14 and pro-MMP-3 were activated with trypsin 5 μg/ml for 15 min at 37° C. followed the soybean trypsin inhibitor (SBTI) 23 μg/ml for pro-MMP-14 and 62 μg/ml for pro-MMP-3. The catalytic domains of MMP-14 and MMP-16 were utilized without activation.
(§3) For the assay measurements, the stock solutions of the inhibitor (DMSO, 100 mM) were further diluted up to 7 different concentrations (0.01 nM-300 μM) for each MMP, in the buffer for the fluorometric assay (FAB: Tris 50 mM, pH=7.5, NaCl 150 mM, CaCl2 10 mM, Brij 35 0.05% and DMSO 1%). The solutions of activated enzyme (final concentrations 2.9 nM for MMP-2, 2.7 nM for MMP-9, 2.4 nM for MMP-7, 1 nM for MMP-14 and MMP-3, 1.5 nM for MMP-8 and MMP-16cd, 0.84 nM for MMP-14cd, 0.66 nM for MMP-13 and 0.20 nM for MMP-1) and of inhibitor were incubated in the assay buffer for 4 h at 25° C. After the addition of solution of fluorogenic substrate 200 μM Mca-Arg-Pro-Lys-Pro-Val-Glu-Nva-Trp-Arg-Lys(Dnp)-NH2 (Sigma) for MMP-3 and Mca-Lys-Pro-Leu-Gly-Leu-Dpa-Ala-Arg-NH2 (Bachem) for all the other enzymes in DMSO (final concentration 2 μM), the hydrolysis were monitored every 15 sec for 20 min, recording the increase in fluorescence (λex=325 nm, λem=400 nm) with a Molecular Device SpectraMax Gemini XS plates reader. The assays were made in triplicate in a total volume of 200 μl per well on 96 well-plates for microtitolation (Corning, black, NBS). The control wells were without inhibitor.
(§4) The inhibition activity of MMP was expressed in relative fluorescence unit (RFU). The percentage of inhibition was calculated using control reactions without inhibitor.
(§5) IC50 was determined using the formula: Vi/Vo=1/(1+[I]/IC50), wherein Vi is the initial rate of the substrate scission in presence of the inhibitor at the concentration [I] and Vo is the initial rate in the absence of inhibitor. The results were analyzed with the SoftMax Pro software and the GraFit software.

[2] = target: T2, MMP-9 (Homo sapiens, UniProt P14780); assay: In vitro fluorometric inhibition assay of MMPs: MMP-9
T2 construct: gift of Prof; Gillian Murphy (Oncology Department, Cambridge University, UK)
Procedure: as §1
as §2, with “The proenzymes were activated immediately before the use with p-aminophenylmercuric acetate (APMA 2 mM for 1 h at 37° C. for MMP-1, MMP-2 and MMP-8, 1 mM for 1 h at 37° C. for MMP-9 and MMP-7, 1 mM for 30 min at 37° C. for MMP-13).” left out
as §3, with “The solutions of activated enzyme (final concentrations 2.9 nM for MMP-2, 2.7 nM for MMP-9, 2.4 nM for MMP-7, 1 nM for MMP-14 and MMP-3, 1.5 nM for MMP-8 and MMP-16cd, 0.84 nM for MMP-14cd, 0.66 nM for MMP-13 and 0.20 nM for MMP-1) and of inhibitor were incubated in the assay buffer for 4 h at 25° C.” left out
as §4, §5

[3] = target: T3, MMP-2 (Homo sapiens, UniProt P08253); assay: In vitro fluorometric inhibition assay of MMPs: MMP-2
T3 construct: gift of Prof; Gillian Murphy (Oncology Department, Cambridge University, UK)
T3 sequence (P08253 110-660): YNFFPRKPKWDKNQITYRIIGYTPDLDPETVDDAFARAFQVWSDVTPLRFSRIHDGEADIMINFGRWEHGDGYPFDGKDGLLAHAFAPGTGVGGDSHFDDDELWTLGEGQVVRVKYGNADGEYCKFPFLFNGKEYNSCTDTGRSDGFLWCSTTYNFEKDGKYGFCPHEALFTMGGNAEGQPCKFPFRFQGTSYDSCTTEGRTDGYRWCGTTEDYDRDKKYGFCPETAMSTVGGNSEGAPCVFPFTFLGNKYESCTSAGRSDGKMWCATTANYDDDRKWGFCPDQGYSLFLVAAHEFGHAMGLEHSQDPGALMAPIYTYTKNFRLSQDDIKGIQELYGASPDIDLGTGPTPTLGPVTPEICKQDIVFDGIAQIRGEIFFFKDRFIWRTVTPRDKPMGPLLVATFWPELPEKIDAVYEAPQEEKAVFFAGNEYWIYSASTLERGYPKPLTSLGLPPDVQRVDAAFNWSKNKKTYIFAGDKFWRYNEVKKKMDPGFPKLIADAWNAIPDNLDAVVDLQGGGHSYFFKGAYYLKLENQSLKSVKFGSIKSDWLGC
Procedure: as §1, §2, §3, §4, §5

T2 sequence (P14780 107-707 limits assumed): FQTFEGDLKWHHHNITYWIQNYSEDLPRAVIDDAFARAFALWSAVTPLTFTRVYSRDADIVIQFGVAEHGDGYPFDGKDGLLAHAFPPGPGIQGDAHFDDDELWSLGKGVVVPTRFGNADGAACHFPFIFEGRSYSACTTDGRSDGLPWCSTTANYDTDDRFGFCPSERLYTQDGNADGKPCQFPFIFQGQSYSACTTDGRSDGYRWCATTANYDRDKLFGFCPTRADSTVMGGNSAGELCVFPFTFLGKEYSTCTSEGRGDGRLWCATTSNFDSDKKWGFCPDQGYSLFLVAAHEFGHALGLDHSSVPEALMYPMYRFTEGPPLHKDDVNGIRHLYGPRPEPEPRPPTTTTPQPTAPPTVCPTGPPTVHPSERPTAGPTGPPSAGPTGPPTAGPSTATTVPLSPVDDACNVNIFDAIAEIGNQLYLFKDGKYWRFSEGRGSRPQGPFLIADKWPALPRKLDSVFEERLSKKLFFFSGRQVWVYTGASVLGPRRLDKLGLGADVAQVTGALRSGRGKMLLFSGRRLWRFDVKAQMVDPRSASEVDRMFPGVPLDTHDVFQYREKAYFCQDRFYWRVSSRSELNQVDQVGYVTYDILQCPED

**Q.** COc1ccc(Oc2ccc(S(=O)(=O)c3ccccc3C(=O)NS(C)(=O)=O)cc2)cc1 [Compound 38, 2-(4-(4-methoxyphenoxy)phenylsulphonyl)-N-(methylsulphonyl)benzamide] was tested. Which IC50 ([1]; Table III, cells marked (*)) did it give?
**A.** 528 ± 58.1 µM

**Q.** What about the IC50 ([2]; Table III, cells marked (*)) of the same compound?
**A.** 101 ± 5.9 µM

**Q.** And the IC50 ([3]; Table III, cells marked (*))?
**A.** 20.5 ± 2.1 µM

**Q.** Which IC50 ([1]; Table III, cells marked (*)) does the source give for COc1ccc(Oc2ccc(Sc3ccccc3CC(=O)NS(C)(=O)=O)cc2)cc1 [Compound 39, 2-(2-(4-(4-methoxyphenoxy)phenylthio)phenyl)-N-(methylsulphonyl)acetamide] here?
**A.** 272 ± 18.7 µM

**Q.** And the IC50 ([2]; Table III, cells marked (*))?
**A.** 106 ± 23.6 µM

**Q.** And the IC50 ([3]; Table III, cells marked (*))?
**A.** 183 ± 18.4 µM

**Q.** What does the source list for COc1ccc(Oc2ccc(S(=O)(=O)c3ccccc3CC(=O)NS(C)(=O)=O)cc2)cc1 [Compound 43, 2-(2-(4-(4-methoxyphenoxy)phenylsulphonyl)phenyl)-N-(methylsulphonyl)acetamide]?
**A.** IC50 ([1]; Table III, cells marked (*)): 260 ± 30.1 µM; IC50 ([2]; Table III, cells marked (*)): 47.3 ± 2 µM; IC50 ([3]; Table III, cells marked (*)): 78.6 ± 6.3 µM

**Q.** With COc1ccc(-c2ccc(Sc3ccccc3C(=O)O)cc2)cc1 [Compound 47, 2-(4′-methoxybiphenyl-4-ylthio)benzoic acid] as the compound, how does the IC50 ([1]; Table II, cells marked (*)) read?
**A.** 116 ± 9.79 µM

**Q.** What about the IC50 ([2]; Table II, cells marked (*)) of the same compound?
**A.** 83.5 ± 5.87 µM

**Q.** What about the IC50 ([3]; Table II, cells marked (*)) of the same compound?
**A.** 62.5 ± 6.27 µM

**Q.** COc1ccc(-c2ccc(Sc3ccccc3C(=O)NS(C)(=O)=O)cc2)cc1 [Compound 48, 2-(4′-methoxybiphenyl-4-ylthio)-N-(methylsulphonyl)benzamide] was tested. Which IC50 ([1]; Table II, cells without (*)) did it give?
**A.** 73.1 ± 7.9 µM

**Q.** And the IC50 ([3]; Table II, cells without (*))?
**A.** 41.8 ± 5.1 µM

**Q.** With COc1ccc(-c2ccc(Sc3ccccc3C(C)C(=O)O)cc2)cc1 (centres unmarked) [Compound 54] as the compound, how does the IC50 ([1]; Table II, cells marked (*)) read?
**A.** 9.95 ± 0.916 µM

**Q.** And the IC50 ([3]; Table II, cells marked (*))?
**A.** 0.159 ± 0.0068 µM

**Q.** COc1ccc(-c2ccc(Sc3ccccc3C(C)C(=O)NO)cc2)cc1 (centres unmarked) [Compound 56a, N-hydroxy-2-(2-(4′-methoxybiphenyl-4-ylthio)phenyl)propanamide] was tested. Which IC50 ([1]; Table II, cells marked (*)) did it give?
**A.** 6.5 ± 0.597 µM

**Q.** And the IC50 ([3]; Table II, cells marked (*))?
**A.** 0.0272 ± 0.0016 µM

**Q.** Which IC50 ([1]; Table II, cells without (*)) does the source give for COc1ccc(-c2ccc(Sc3ccccc3C(C)C(=O)NS(C)(=O)=O)cc2)cc1 (centres unmarked) [Compound 57, 2-(2-(4′-methoxybiphenyl-4-ylthio)phenyl)-N-(methylsulphonyl)propanamide] here?
**A.** 156 ± 9.5 µM

**Q.** And the IC50 ([2]; Table II, cells without (*))?
**A.** 73.7 ± 7.8 µM

**Q.** And the IC50 ([3]; Table II, cells without (*))?
**A.** 65.8 ± 5.8 µM

**Q.** How did the IC50 ([1]; Table III, pH 6.7) turn out when COc1ccc(Oc2ccc(S(=O)(=O)c3ccccc3CP(=O)(O)O)cc2)cc1 [Compound 72, 2-(4-(4-methoxyphenoxy)phenylsulphonyl)benzyl phosphonic acid] was run?
**A.** 1.95 ± 0.212 µM

**Q.** What about the IC50 ([2]; Table III, pH 6.7) of the same compound?
**A.** 0.168 ± 0.027 µM

**Q.** What about the IC50 ([3]; Table III, pH 6.7) of the same compound?
**A.** 0.571 ± 0.045 µM

**Q.** For COc1ccc(-c2ccc(S(=O)(=O)c3ccccc3CP(=O)(O)O)cc2)cc1 [Compound 86, 2-(4′-methoxybiphenyl-4-ylsulphonyl)benzylphosphonic acid], which IC50 ([1]; Table II, cells marked (*)) is on record?
**A.** 8.33 ± 0.511 µM

**Q.** And the IC50 ([2]; Table II, cells marked (*))?
**A.** 2.47 ± 0.212 µM

**Q.** And the IC50 ([3]; Table II, cells marked (*))?
**A.** 0.384 ± 0.031 µM

**Q.** How did the IC50 ([1]; Table II, cells without (*)) turn out when COc1ccc(-c2ccc(S(=O)(=O)c3ccccc3C(=O)NS(C)(=O)=O)cc2)cc1 [Compound 106, 2-(4′-methoxybiphenyl-4-yl-sulphonyl)-N-(methylsulphonyl)benzamide] was run?
**A.** 64.7 ± 2.9 µM

**Q.** And the IC50 ([3]; Table II, cells without (*))?
**A.** 22.5 ± 2.1 µM
